“Also recorded” adds a separate entry of the source. Ends that are not written are not given here.
Tests used:
[1] = 24 mg/kg of body weight intravenously, rat; serum level by bioassay; cited from earlier work
[2] = system: intact rats; assay: Bone mineral apposition rate by tetracycline labelling in intact rats; type: in vivo, rat
Description: Tetracycline is excited by long UV light (i.e., with a range close to the blue range) and a bright yellow fluorescence is emitted, which fluorescence is detectable in bone sections viewed with a fluorescence microscope. Tetracycline labels a bone surface when a newly formed collagen matrix begins to incorporate calcium and when such surface is sectioned, the tetracycline appears as a yellow fluorescent band. A subsequently administered dose of tetracycline appears as a second band located superficial to the first band. The distance between the two bands represent the thickness of bone matrix formed in the interval between the two doses. The rate of bone deposition can be calculated by dividing the distance with the time interval between doses. Errors can be introduced by cuts which are not perpendicular to the growing bone surface. To reduce this error, only sites in which the two bands were distinct and parallel to each other were used. Measurements made on 10 randomly chosen sites fulfilling this requirement were chosen to give readings close to the arithmetic mean of the rate.
The measuring system used was a Leitz scanning light microscope photometer MPV-CD with a UV source being provided by a 100 W stabilized mercury burner. Sections were generally magnified using 16× objective using a moving scanning slit, the intensity of the fluorescent band was amplified and recorded. The light signal was transformed into digital output and the profile of the tetracycline intensity recorded. The instrument carries a mechanical error of less than 5%. The distance measured was periodically calibrated with a microscopic grid and a good correlation was found, as shown in FIG. 2.
Intact 400-420 g male rats were used for testing. A control group received the carrier buffer of 50 mM sodium phosphate (pH 7.2). […]
The unstained plastic embedded sections were viewed under a fluorescence microscope with a ×16 objective and ×10 eyepieces systematically to cover the trabecular bone in the space enclosed by the endosteal surface. […]

[3] = system: ovariectomized rats; assay: Autopsy of ovariectomized rats after daily peptide injection; type: in vivo, rat; conditions: 100 μg s.c. daily for eight weeks
Experimental: The six ovariectomized rats were injected subcutaneously with 100 μl of a 0.1% acetic acid solution containing 100 μg of the chemically synthesized peptide (SEQ ID NO:11) every 24 hours for 28 days. […] Postmortem blood was taken by cardiac puncture and serum frozen until analyzed. A full autopsy was performed on each rat. […] Eight weeks after ovariectomization, five ovariectomized rats were injected subcutaneously with 100 μl of a 0.1% acetic acid solution containing 100 μg of the chemically synthesized peptide in which the N-terminal amino group was modified with an acetyl group (SEQ ID NO:12). This was done every 24 hours for eight weeks. […] Postmortem blood was taken by cardiac puncture and serum frozen until analyzed. An autopsy was performed on each rat.

[4] = system: parathyroidectomized rats; assay: Histological evaluation of selected tissues for toxic lesions after miniosmotic pump implantation; type: in vivo, rat; conditions: about 25 μg per day by miniosmotic pump, about 31 days
Experimental: A miniosmotic pump (Alzet) was loaded with about 1.5 ml of the chemically synthesized peptide having an N-terminal acetyl group (SEQ ID NO:12) in 0.1% acetic acid so as to give a calculated daily delivery of about 25 μg per day. A pump was implanted under the subcutaneous fascia of the dorsal aspect of the left side of the thorax of five rats which had been parathyroidectomized seven days earlier. Five similarly parathyroidectomized rats received similar implants containing only 0.1% acetic acid. Five intact rats were also used as controls.
Histological evaluation of selected tissues of the five rats of each of the groups indicated in Table Four were carried out microscopically.

[5] = system: ovariectomized rats; assay: Bone mineral apposition rate in ovariectomized rats; type: in vivo, rat; conditions: 100 μg s.c. every 24 hours for 28 days; lower metaphysis of left femur; untreated OVX 0.59, sham 0.85, intact 0.86
Experimental: Ovariectomies were performed on six female Sprague-Dawley rats, each sedated with 1 mg of sodium barbiturate I.P. Sham operations were carried out a second group of six rats. The rats were given two weeks to recover from the operations. The six ovariectomized rats were injected subcutaneously with 100 μl of a 0.1% acetic acid solution containing 100 μg of the chemically synthesized peptide (SEQ ID NO:11) every 24 hours for 28 days. […] A second group of six ovariectomized rats, was similarly treated with a 0.1% acetic acid solution containing no peptide over the same 28 day period. A third group of six rats, each of which had undergone the sham operation, was similarly treated with a 0.1% acetic acid solution containing no peptide over the same 28 day period. A fourth group of six intact rats was similarly treated with a 0.1% acetic acid solution containing no peptide over the same 28 day period. The bone mineral apposition rate was determined, as described previously, by measurement of the lower metaphysis of the left femur. The results are tabulated in Table Six and graphically depicted in FIG. 25.

[6] = system: ovariectomized rats; assay: Right femoral bone calcium density of ovariectomized rats; type: in vivo, rat
Experimental: Ovariectomies were performed on six female Sprague-Dawley rats, each sedated with 1 mg of sodium barbiturate I.P. Sham operations were carried out a second group of six rats. The rats were given two weeks to recover from the operations. The six ovariectomized rats were injected subcutaneously with 100 μl of a 0.1% acetic acid solution containing 100 μg of the chemically synthesized peptide (SEQ ID NO:11) every 24 hours for 28 days. […] The right femur of each rat was decalcified separately. The decalcification fluid consisted of 10% formic acid (v/v) and 5% sodium citrate (w/v) at pH 3.0. Each bone was placed in 6 ml of the decalcification fluid. The fluid was […] days, again after another 4 days, again after another 2 days, and again after another 3 days. After another 2 days, the decalcification fluid was removed and replaced by deionized water, and the sample agitated for 2 days. The water changed after two days and again after another day. […] The volume of each right femur was determined by determining the volume of water displaced when the bone was immersed in water. The calcium concentration of each sample was determined according to standard methods and the calcium density of each bone calculated. […] The right femurs were decalcified and calcium density determined as before.

[7] = system: intact rats; assay: Bone mineral apposition rate by tetracycline labelling in intact rats; type: in vivo, rat; remark: listed apart in the source
[8] = 0.1 ml of 1 mg per ml solution, subcutaneous, right thigh, lower metaphysis of right femur, control 1.02

## CN(C)[C@@H]1C(O)=C(C(N)=O)C(=O)[C@@]2(O)C(O)=C3C(=O)c4c(O)cccc4[C@@](C)(O)[C@H]3C[C@@H]12 [tetracycline]
[1]
  clearance from the circulation: cleared from the circulation within half an hour

## expressed polypeptide: human polypeptide (SEQ ID NO:11 sequence) expressed in E. coli JM 103 from pUC 8 plasmid, purified by C3 HPLC (GIGKRTNEHTADCKIKPNTLHKKAAETLMVLDQNQP)
[2]; 0.7 and 0.3 O.D. (280 nm) units injected, intact 400-420 g male rats vs carrier buffer
  effect on bone formation: appears to have a stimulant effect on bone formation; also recorded: showed biological activity

## Ac-GIGKRTNEHTADCKIKPNTLHKKAAETLMVLDQNQP [SEQ ID NO:12]
[3]
  pathology at autopsy: No obvious pathology was observed
[4]
  histological evaluation of selected tissues (toxic lesions): No evidence of toxic lesions was found

## GIGKRTNEHTADCKIKPNTLHKKAAETLMVLDQNQP [SEQ ID NO:11]
[5]
  bone mineral apposition rate, Mean: 0.90 μm/day
[2]; 25 μg in 1 ml, single intramuscular injection, lower metaphysis of right femur, vehicle control 1.03
  bone apposition rate, Mean: 1.35 μm/d
[2]; 25 μg single intramuscular injection, lower femoral epiphysis, control 0.85
  bone mineral apposition rate, Mean: 1.05 μm/day
[6]; 100 μg s.c. daily for 28 days, ovariectomized rats
  bone calcium concentration: appears to be normal
[6]; 100 μg s.c. every 24 hours for 28 days, starting two weeks after ovariectomy, untreated OVX 6.61, sham 7.45, intact 7.69
  Right Femoral Calcium Concentration, Mean: 7.57 µmol/mL
[7]; 50 μg single intramuscular injection, lower femoral epiphysis, control 0.85
  bone mineral apposition rate, Mean: 1.15 μm/day
[7]; 100 μg single intramuscular injection, lower femoral epiphysis, control 0.85
  bone mineral apposition rate, Mean: 1.32 μm/day
[7]; [8]
  bone mineral apposition rate, Mean: 1.67 μm/d
[7]; 25-100 μg, intramuscular
  dose dependency of stimulant effect: increases with the amount of peptide administered

## GIGKRTNEHTADAKIKPNTLHKKAAETLMVLDQNQP [SEQ ID NO:13]
[7]; 0.1 ml of 1 mg per ml solution s.c., compared with control and normal peptide
  bone apposition rate: significantly greater than that for those of the control group but below the bone apposition rate shown for the rats injected with the normal peptide
[7]; [8]
  bone mineral apposition rate, Mean: 1.35 μm/d

— US6596498B1, “Bone stimulating factor” (Osteopharm Inc., priority 1993, dated 2003)
